Patent US11219221B2 (FarmHannong Co., Ltd., priority 2017, dated 2022)

Experiments:
[1] = tested on: CyPPO16 wild type (SEQ ID NO: 1) in PPO-deficient E. coli BT3(ΔPPO); format: cell-based; details: LB agar, 37° C., light, 16 to 20 hours
Experimental: (§1) The mutated CyPPO gene obtained from the Example 2 was transformed to BT3 (ΔPPO) strain which is deficient of PPO activity and cultured in LB media with PPO-inhibiting herbicide, thereby examining whether growth of transformed BT3 was not inhibited.
(§2) BT3 competent cells were transformed with the pET303-CyPPO16 and pET303-CyPPO17 plasmids and those with a mutation(s) constructed in Example 2 respectively, and were cultured in LB agar media containing carbenicillin (Gold Biotechnology, Co., Ltd.).
(§3) Single colony of E. coli transformed with each CyPPO gene was cultured in 3 ml of LB broth containing carbenicillin overnight, and then was subcultured until absorbance (0D600) reached 0.5 to 1. Then, it was diluted with LB broth to OD600=0.5. Again, the diluted solution was serially diluted 4 times by a factor of one tenth.
(§4) The LB agar media (LB 25 g/l, Bacto agar 15 g/l) containing carbenicillin (100 μg/ml) and 0 to 4,000 μM of various herbicides dissolved in DMSO was prepared. Next, 10 μl of each diluted solution was dropped on the plate and cultured at 37° C. under light (Tables 7 and 9, FIGS. 2 to 6, and 18 to 22) or dark (Tables 8 and 10, FIGS. 7 to 17, and 23 to 33) for 16 to 20 hours. Then, extent of tolerance was evaluated.
(§5) The extent of herbicide tolerance of the mutated genes was evaluated by comparing that of mutated genes with that of wild type. The relative tolerance was represented with “+” as a factor of 10 times. Evaluation result was listed in Tables 7 to10 and FIGS. 2 to 33:
(§6) In Tables 7 to 10, tolerance level was presented as of tolerance of wild type and of variants equivalent to that of wild type, and was done as ‘+’ per each 10 fold resistance until ‘+++++’ as maximal resistance. (Tolerance level was evaluated by relative growth level of variants to that of wild type in the media containing highest concentration of herbicide; ‘+’=1-9 fold higher tolerance, ‘++’=10-99 fold higher tolerance, ‘+++’=100-999 fold higher tolerance, ‘++++’=1,000-9,999 fold higher tolerance, ‘+++++’=more than 10,000 fold higher tolerance)

[2] = tested on: CyPPO17 wild type (SEQ ID NO: 3) in PPO-deficient E. coli BT3(ΔPPO); format: cell-based; details: LB agar, 37° C., light, 16 to 20 hours
Experimental: as §1, §2, §3, §4, §5, §6

[3] = tested on: CyPPO16 (SEQ ID NO: 1) variant A162C in PPO-deficient E. coli BT3(ΔPPO); format: cell-based; details: LB agar, 37° C., light, 16 to 20 hours
Experimental: as §1, §2, §3, §4
(§7) The extent of herbicide tolerance of the mutated genes was evaluated by comparing that of mutated genes with that of wild type. The relative tolerance was represented with “+” as a factor of 10 times.
(§8) In Tables 7 to 10, tolerance level was presented as of tolerance of wild type and of variants equivalent to that of wild type, and was done as ‘+’ per each 10 fold resistance until ‘+++++’ as maximal resistance.

[4] = tested on: CyPPO16 (SEQ ID NO: 1) variant A162L in PPO-deficient E. coli BT3(ΔPPO); format: cell-based; details: LB agar, 37° C., light, 16 to 20 hours
Experimental: as §1, §2, §3, §4, §7, §8

[5] = tested on: CyPPO16 (SEQ ID NO: 1) variant F360C in PPO-deficient E. coli BT3(ΔPPO); format: cell-based; details: LB agar, 37° C., light, 16 to 20 hours
Experimental: as §1, §2, §3, §4, §7, §8

[6] = tested on: CyPPO16 (SEQ ID NO: 1) variant F360I in PPO-deficient E. coli BT3(ΔPPO); format: cell-based; details: LB agar, 37° C., light, 16 to 20 hours
Experimental: as §1, §2, §3, §4, §7, §8

[7] = tested on: CyPPO16 (SEQ ID NO: 1) variant F360L in PPO-deficient E. coli BT3(ΔPPO); format: cell-based; details: LB agar, 37° C., light, 16 to 20 hours
Experimental: as §1, §2, §3, §4, §7, §8

[8] = tested on: CyPPO16 (SEQ ID NO: 1) variant F360M in PPO-deficient E. coli BT3(ΔPPO); format: cell-based; details: LB agar, 37° C., light, 16 to 20 hours
Experimental: as §1, §2, §3, §4, §7, §8

[9] = tested on: CyPPO16 (SEQ ID NO: 1) variant F360V in PPO-deficient E. coli BT3(ΔPPO); format: cell-based; details: LB agar, 37° C., light, 16 to 20 hours
Experimental: as §1, §2, §3, §4, §7, §8

[10] = tested on: CyPPO16 (SEQ ID NO: 1) variant V305M in PPO-deficient E. coli BT3(ΔPPO); format: cell-based; details: LB agar, 37° C., light, 16 to 20 hours
Experimental: as §1, §2, §3, §4, §7, §8

[11] = tested on: CyPPO17 (SEQ ID NO: 3) variant A166C in PPO-deficient E. coli BT3(ΔPPO); format: cell-based; details: LB agar, 37° C., light, 16 to 20 hours
Experimental: as §1, §2, §3, §4, §7, §8

[12] = tested on: CyPPO17 (SEQ ID NO: 3) variant A166L in PPO-deficient E. coli BT3(ΔPPO); format: cell-based; details: LB agar, 37° C., light, 16 to 20 hours
Experimental: as §1, §2, §3, §4, §7, §8

[13] = tested on: CyPPO17 (SEQ ID NO: 3) variant F359C in PPO-deficient E. coli BT3(ΔPPO); format: cell-based; details: LB agar, 37° C., light, 16 to 20 hours
Experimental: as §1, §2, §3, §4, §7, §8

[14] = tested on: CyPPO17 (SEQ ID NO: 3) variant F359I in PPO-deficient E. coli BT3(ΔPPO); format: cell-based; details: LB agar, 37° C., light, 16 to 20 hours
Experimental: as §1, §2, §3, §4, §7, §8

[15] = tested on: CyPPO17 (SEQ ID NO: 3) variant F359L in PPO-deficient E. coli BT3(ΔPPO); format: cell-based; details: LB agar, 37° C., light, 16 to 20 hours
Experimental: as §1, §2, §3, §4, §7, §8

[16] = tested on: CyPPO17 (SEQ ID NO: 3) variant F359M in PPO-deficient E. coli BT3(ΔPPO); format: cell-based; details: LB agar, 37° C., light, 16 to 20 hours
Experimental: as §1, §2, §3, §4, §7, §8

[17] = tested on: CyPPO17 (SEQ ID NO: 3) variant V304L in PPO-deficient E. coli BT3(ΔPPO); format: cell-based; details: LB agar, 37° C., light, 16 to 20 hours
Experimental: as §1, §2, §3, §4, §7, §8

[18] = tested on: CyPPO17 (SEQ ID NO: 3) variant V304M in PPO-deficient E. coli BT3(ΔPPO); format: cell-based; details: LB agar, 37° C., light, 16 to 20 hours
Experimental: as §1, §2, §3, §4, §7, §8

[19] = molecular target: Spirulina subsalsa PPO CyPPO16 (SEQ ID NO: 1) variant A162L (MBP fusion); assay: PPO enzyme inhibition (IC50), MBP-fused PPO; format: biochemical; details: 50 μM protoporphyrinogen IX, pH 8.0, room temperature, 30 min
Experimental: (§9) Thus, PPO proteins of wild type and variants were expressed as fused to MBP and were used for experiments.
(§10) The following process for purification of PPO protein was performed in a 4° C. cold room. Amylose resin (NEB) was packed to 1.5×15 cm column (Bio-Rad, Econo Columns 1.5×15 cm, glass chromatography column, max. vol), and the obtained protein extracts were loaded to the column at a flow rate of 0.2 ml/min. The column was washed with 3 column volumes of buffer and the presence of protein in the washing solution was examined. When the protein was no longer detected, the washing procedure was terminated. Then, the MBP-PPO protein was eluted with approximately 2 column volumes of buffer containing 20 mM maltose. The protein concentration of each eluent was determined and the elution was stopped when the protein was no longer detected. Ten microliter of each fraction was investigated for protein quantification and SDS-PAGE analysis. The highly pure fractions of PPO protein variants were used for the enzyme assay.
(§11) Since protoporphyrinogen IX, a substrate of PPO protein, was not commercially available, it was chemically synthesized in the laboratory. Overall process was performed in dark under nitrogen stream. […] of protoporphyrin IX was dissolved in 20 ml of 20% (v/v) EtOH, and stirred under dark condition for 30 minutes. The obtained protoporphyrin IX solution was put into a 15 ml screw tube in an amount of 800 μl, and flushed with nitrogen gas for 5 minutes. To this, 1.5 g of sodium amalgam was added and vigorously shaken for 2 minutes. The lid was opened to exhaust hydrogen gas in the tube. Thereafter, the lid was closed and incubated for 3 minutes. The protoporphyrinogen IX solution was filtered using syringe and cellulose membrane filter. […] To determine the enzyme activity of PPO protein, a reaction mixture was prepared with the following composition (based on 10 ml): 50 mM Tris-Cl (pH 8.0); 50 mM NaCl; 0.04% (v/v) Tween 20; 40 mM glucose (0.072 g); 5 units glucose oxidase (16.6 mg); and 10 units catalase (1 μl).
(§12) Hundred and eighty microliters of a reaction mixture containing the purified PPO protein were placed in 96 well plates and 20 μl of […] were added. […] The reaction proceeded at room temperature for 30 min and the fluorescence of protoporphyrin IX was measured using Microplate reader (Sense, Hidex) (excitation: 405 nm; emission: 633 nm). […] To this, 2.7 N HCl was added, and the absorbance at 408 nm was measured. A standard curve was generated using standard protoporphyrin IX, and PPO activity was measured by calibration of protoporphyrin IX using the standard curve of protoporphyrin IX.

[20] = molecular target: Spirulina subsalsa PPO CyPPO16 (SEQ ID NO: 1) variant L327T (MBP fusion); assay: PPO enzyme inhibition (IC50), MBP-fused PPO; format: biochemical; details: 50 μM protoporphyrinogen IX, pH 8.0, room temperature, 30 min
Experimental: as §9, §10, §11, §12

[21] = molecular target: Spirulina subsalsa PPO CyPPO16 (SEQ ID NO: 1) variant R85A (MBP fusion); assay: PPO enzyme inhibition (IC50), MBP-fused PPO; format: biochemical; details: 50 μM protoporphyrinogen IX, pH 8.0, room temperature, 30 min
Experimental: as §9, §10, §11, §12

[22] = molecular target: Spirulina subsalsa PPO CyPPO16 (SEQ ID NO: 1) variant V160C (MBP fusion); assay: PPO enzyme inhibition (IC50), MBP-fused PPO; format: biochemical; details: 50 μM protoporphyrinogen IX, pH 8.0, room temperature, 30 min
Experimental: as §9, §10, §11, §12

[23] = molecular target: Spirulina subsalsa PPO CyPPO16 (SEQ ID NO: 1) variant V305M (MBP fusion); assay: PPO enzyme inhibition (IC50), MBP-fused PPO; format: biochemical; details: 50 μM protoporphyrinogen IX, pH 8.0, room temperature, 30 min
Experimental: as §9, §10, §11, §12

[24] = molecular target: Spirulina subsalsa PPO CyPPO16, wild type, SEQ ID NO: 1 (MBP fusion); assay: PPO enzyme inhibition (IC50), MBP-fused PPO; format: biochemical; details: 50 μM protoporphyrinogen IX, pH 8.0, room temperature, 30 min
Experimental: as §9, §10, §11, §12

Q: `CC(C)N(C)S(=O)(=O)NC(=O)c1cc(-n2c(=O)cc(C(F)(F)F)n(C)c2=O)c(F)cc1Cl` [saflufenacil] was tested. Which “Herbicide tolerance (relative to wild type)” value [1] did it give?
A: −

Q: And the “Herbicide tolerance (relative to wild type)” value [2]?
A: −

Q: And the “Herbicide tolerance (relative to wild type)” value [3]?
A: +++ (100-999 fold higher tolerance)

Q: What about the “Herbicide tolerance (relative to wild type)” value [4] of the same compound?
A: +++ (100-999 fold higher tolerance)

Q: And the “Herbicide tolerance (relative to wild type)” value [5]?
A: +++ (100-999 fold higher tolerance)

Q: What about the “Herbicide tolerance (relative to wild type)” value [6] of the same compound?
A: +++ (100-999 fold higher tolerance)

Q: And the “Herbicide tolerance (relative to wild type)” value [7]?
A: +++ (100-999 fold higher tolerance)

Q: And the “Herbicide tolerance (relative to wild type)” value [8]?
A: +++ (100-999 fold higher tolerance)

Q: And the “Herbicide tolerance (relative to wild type)” value [9]?
A: +++ (100-999 fold higher tolerance)

Q: And the “Herbicide tolerance (relative to wild type)” value [10]?
A: +++ (100-999 fold higher tolerance)

Q: What about the “Herbicide tolerance (relative to wild type)” value [11] of the same compound?
A: +++ (100-999 fold higher tolerance)

Q: And the “Herbicide tolerance (relative to wild type)” value [12]?
A: +++ (100-999 fold higher tolerance)

Q: What about the “Herbicide tolerance (relative to wild type)” value [13] of the same compound?
A: +++ (100-999 fold higher tolerance)

Q: What about the “Herbicide tolerance (relative to wild type)” value [14] of the same compound?
A: +++ (100-999 fold higher tolerance)

Q: And the “Herbicide tolerance (relative to wild type)” value [15]?
A: +++ (100-999 fold higher tolerance)

Q: What about the “Herbicide tolerance (relative to wild type)” value [16] of the same compound?
A: +++ (100-999 fold higher tolerance)

Q: What about the “Herbicide tolerance (relative to wild type)” value [17] of the same compound?
A: + (1-9 fold higher tolerance)

Q: And the “Herbicide tolerance (relative to wild type)” value [18]?
A: +++ (100-999 fold higher tolerance)

Q: With `Cc1nn(-c2cc(NS(C)(=O)=O)c(Cl)cc2Cl)c(=O)n1C(F)F` [sulfentrazone] as the compound, how does the IC50 [19] read?
A: 1100 nM

Q: And the IC50 [20]?
A: 1830 nM

Q: And the IC50 [21]?
A: 1040 nM

Q: What about the IC50 [22] of the same compound?
A: 584 nM

Q: What about the IC50 [23] of the same compound?
A: 305 nM

Q: And the IC50 [24]?
A: 245 nM
